From US8420823B2, “Long-chain fatty acyl elongase inhibitor comprising arylsulfonyl derivative as active ingredient” (MSD K.K., priority 2008, dated 2013)
Where a name gives a salt, the structure may show the parent alone.

target: T1, human LCE (Homo sapiens, UniProt Q9H5J4); experiment: LCE enzyme activity-inhibitory test; type: biochemical; settings: [14C]-malonyl CoA / palmitoyl CoA substrate, 37° C., 90 minutes
T1 sequence (Q9H5J4 1-265): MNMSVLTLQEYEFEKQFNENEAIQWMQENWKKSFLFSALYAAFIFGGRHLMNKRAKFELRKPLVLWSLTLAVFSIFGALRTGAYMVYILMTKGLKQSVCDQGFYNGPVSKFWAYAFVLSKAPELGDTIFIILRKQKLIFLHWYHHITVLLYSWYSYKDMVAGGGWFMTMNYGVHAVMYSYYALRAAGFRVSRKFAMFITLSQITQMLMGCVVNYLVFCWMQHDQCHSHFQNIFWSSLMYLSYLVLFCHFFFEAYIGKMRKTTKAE
Method in brief: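 Human LCE (100 μg/mL in enzyme solution) was incubated 90 min at 37 °C in 100 mM potassium phosphate pH 6.5 with palmitoyl CoA, malonyl CoA, [14C]-malonyl CoA, rotenone and fatty acid-free BSA. Acid-stopped, hydrolyzed products were captured on GF/C filters and counted by scintillation. Inhibition was calculated against DMSO control.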

First: CC(C)c1ccc(NC(=O)c2cccc(S(=O)(=O)c3ccccn3)c2)cc1 [Example 121, N-(4-isopropylphenyl)-3-(pyridin-2-ylsulfonyl)benzamide]
Second: CC(C)c1ccc(NC(=O)c2cncc(S(=O)(=O)c3ccccc3)c2)cc1 [Example 158, N-(4-isopropylphenyl)-5-(phenylsulfonyl)nicotinamide]
The IC50 of the first is 19-fold lower: 180 nM for the first, 3400 nM for the second. The first is the more potent here.

First: COc1cccnc1NC(=O)c1cccc(S(=O)(=O)N2CCCC2)c1 [Example 104, N-(3-methoxypyridin-2-yl)-3-(pyrrolidin-1-ylsulfonyl)benzamide]
Second: COc1cccnc1NC(=O)c1cccc(S(=O)(=O)N2CCCC(C(=O)O)C2)c1 (stereo not shown) [Example 56, 1-[(3-{[(3-Methoxypyridin-2-yl)amino]carbonyl}phenyl)sulfonyl]piperidine-3-carboxylic acid]
The IC50 of the first is 20-fold lower: 160 nM for the first, 3200 nM for the second. The first is the more potent here.

Going from `CC(C)Oc1ccc(NC(=O)c2cccc(S(=O)(=O)N3CCCC(F)(F)C3)c2)cc1` [Example 19, 3-[(3,3-Difluoropiperidin-1-yl)sulfonyl]-N-(4-isopropoxyphenyl)benzamide] to `COc1ccc(NC(=O)c2cccc(S(=O)(=O)N3CCCCC3)c2)cc1` [Example 46, N-(4-methoxyphenyl)-3-(piperidin-1-ylsulfonyl)benzamide], the IC50 falls from 1500 nM to 790 nM (1.9-fold).

Compared with `CCC(C)Oc1ccc(NC(=O)c2cccc(S(=O)(=O)c3ccccn3)c2)c(F)c1` (stereo not shown) [Example 128, N-(4-sec-butoxy-2-fluorophenyl)-3-(pyridin-2-ylsulfonyl)benzamide], `CC(C)COc1ccc(NC(=O)c2cccc(S(=O)(=O)c3ccccn3)c2)c(F)c1` [Example 127, N-(2-fluoro-4-isobutoxyphenyl)-3-(pyridin-2-ylsulfonyl)benzamide] is 5.3-fold higher in IC50: 190 nM for the first, 1000 nM for the second. The first is the more potent here.

First: O=C(Nc1cc(C2CC2)n[nH]1)c1cccc(S(=O)(=O)N2CCCCC2)c1 [Example 105, N-(3-cyclopropyl-1H-pyrazol-5-yl)-3-(piperidin-1-ylsulfonyl)benzamide]
Second: O=C(Nc1cccc(Cl)c1)c1cccc(S(=O)(=O)N2CCCCC2)c1 [Example 90, N-(3-chlorophenyl)-3-(piperidin-1-ylsulfonyl)benzamide]
The IC50 of the first is 110-fold lower: 84 nM for the first, 9600 nM for the second.

Going from `CC(C)Oc1ccc(C(=O)NCc2cccc(S(=O)(=O)N3CCCCC3)c2)cc1` [Example 159, 4-Isopropoxy-N-[3-(piperidin-1-ylsulfonyl)benzyl]benzamide] to `CC(=O)c1ccc(NC(=O)c2cccc(S(=O)(=O)N3CCCCC3)c2)cc1` [Example 92, N-(4-acetylphenyl)-3-(piperidin-1-ylsulfonyl)benzamide], the IC50 rises from 230 nM to 9100 nM (40-fold).

First: COc1cccnc1NC(=O)c1cccc(S(=O)(=O)N2CC3CCC2C3)c1 (stereo not shown) [Example 49, 3-(2-Azabicyclo [2.2.1]hept-2-ylsulfonyl)-N-(3-methoxypyridin-2-yl)benzamide]
Second: COc1cccnc1NC(=O)c1cccc(S(=O)(=O)N2C[C@H]3C[C@@H]2CO3)c1 [Example 53, N-(3-methoxypyridin-2-yl)-3-[(1R,4R)-2-oxa-5-azabicyclo[2.2.1]hept-5-ylsulfonyl]benzamide]
The IC50 of the first is 110-fold lower: 67 nM for the first, 7600 nM for the second. The first is the more potent here.

Going from `O=C(Nc1ccc(F)cc1)c1cccc(S(=O)(=O)N2CCCCC2)c1` [Example 71, N-(4-fluorophenyl)-3-(piperidin-1-ylsulfonyl)benzamide] to `CSc1ccc(NC(=O)c2cccc(S(=O)(=O)N3CCCCC3)c2)cc1` [Example 79, N-[4-(methylthio)phenyl]-3-(piperidin-1-ylsulfonyl)benzamide], the IC50 falls from 14000 nM to 2200 nM (6.4-fold).

Going from `COc1cc(Sc2ccccc2)cnc1NC(=O)c1cccc(S(=O)(=O)N2CCCC2)c1` [Example 111, N-[3-methoxy-5-(phenylthio)pyridin-2-yl]-3-(pyrrolidin-1-ylsulfonyl)benzamide] to `O=C(Nc1ccc(Oc2ccccc2)nc1)c1cccc(S(=O)(=O)N2CCCCC2)c1` [Example 101, N-(6-phenoxypyridin-3-yl)-3-(piperidin-1-ylsulfonyl)benzamide], the IC50 rises from 250 nM to 910 nM (3.6-fold).

Compared with `CC(C)Oc1ccc(NC(=O)c2cccc(S(=O)(=O)NCC(C)c3nc4ccccc4[nH]3)c2)cc1` (stereo not shown) [Example 25, 3-({[2-(1H-benzimidazol-2-yl)propyl]amino}sulfonyl)-N-(4-isopropoxyphenyl)benzamide], `CC(C)Oc1ccc(NC(=O)c2cccc(S(=O)(=O)c3nc[nH]n3)c2)cc1` [Example 142, N-(4-isopropoxyphenyl)-3-(1H-1,2,4-triazol-3-ylsulfonyl)benzamide] is 18-fold higher in IC50: 280 nM for the first, 5100 nM for the second. The first is the more potent here.

Compared with `CC(C)Oc1ccc(NC(=O)c2cc(S(=O)(=O)N3CCCCC3)ccc2OCCC#N)cc1` [Example 153, 2-(Cyanoethoxy)-N-(4-isopropoxyphenyl)-5-(piperidin-1-ylsulfonyl)benzamide], `O=C(Nc1ccc(Oc2ccccc2)cc1)c1cccc(S(=O)(=O)N2CCCCC2)c1` [Example 87, N-(4-phenoxyphenyl)-3-(piperidin-1-ylsulfonyl)benzamide] is 2-fold lower in IC50: 420 nM for the first, 210 nM for the second. The second is the more potent here.

First: CC(C)Oc1ccc(NC(=O)c2cccc(S(=O)(=O)N3CCCC(CN4CCOCC4)C3)c2)cc1 (stereo not shown) [Example 14, N-(4-Isopropoxyphenyl)-3-{[3-(morpholin-4-ylmethyl)piperidin-1-yl]sulfonyl}benzamide trifluoroacetate]
Second: CC(C)c1ccc(NC(=O)c2cccc(S(=O)(=O)N3CCOCC3)c2)cc1 [Example 29, N-(4-isopropylphenyl)-3-(morpholin-4-ylsulfonyl)benzamide]
The IC50 of the first is 6.7-fold higher: 1200 nM for the first, 180 nM for the second. The second is the more potent here.

Going from `CCCCOc1cc(NC(=O)c2cccc(S(=O)(=O)c3ccccn3)c2)[nH]n1` [Example 119, N-(3-butoxy-1H-pyrazol-5-yl)-3-(pyridin-2-ylsulfonyl)benzamide] to `CC(C)Oc1cc(NC(=O)c2cccc(S(=O)(=O)c3ccccn3)c2)[nH]n1` [Example 116, N-(3-isopropoxy-1H-pyrazol-5-yl)-3-(pyridin-2-ylsulfonyl)benzamide], the IC50 rises from 6 nM to 12 nM (2-fold). The first is the more potent here.

Going from `CCOC(=O)C1CCCN(S(=O)(=O)c2cccc(C(=O)Nc3ncccc3OC)c2)C1` (stereo not shown) [Example 55, Ethyl 1-[(3-{[(3-methoxypyridin-2-yl)amino]carbonyl}phenyl)sulfonyl]piperidine-3-carboxylate] to `CC(C)Oc1ccc(NC(=O)c2cccc(S(=O)(=O)N3CCC[C@@H](C(N)=O)C3)c2)nc1` [Example 59′, (3R)-1-[(3-{[(5-isopropoxypyridin-2-yl)amino]carbonyl}phenyl)sulfonyl]piperidine-3-carboxamide], the IC50 rises from 310 nM to 3000 nM (9.7-fold). The first is the more potent here.

`COc1cccc(NC(=O)c2cccc(S(=O)(=O)N3CCCCC3)c2)c1` [Example 81, N-(3-methoxyphenyl)-3-(piperidin-1-ylsulfonyl)benzamide] and `O=C(Nc1cccc2cnccc12)c1cccc(S(=O)(=O)N2CCCCC2)c1` [Example 76, 5-{[3-(piperidin-1-ylsulfonyl)benzoyl]amino}isoquinoline trifluoroacetate] are within 1.5-fold of each other in IC50: 1900 nM for the first, 2600 nM for the second.

Going from `CC(C)c1ccc(NC(=O)c2cccc(S(=O)(=O)N3[C@H](C)CC[C@H]3C)c2)cc1` [Example 26, 3-{[(2R,5R)-2,5-dimethylpyrrolidin-1-yl]sulfonyl}-N-(4-isopropylphenyl)benzamide] to `CC(C)c1ccc(NC(=O)c2cccc(S(=O)(=O)N3CCCC(O)C3)c2)cc1` (stereo not shown) [Example 32, 3-[(3-Hydroxypiperidin-1-yl)sulfonyl]-N-(4-isopropylphenyl)benzamide], the IC50 falls from 3500 nM to 100 nM (35-fold).

Going from `CC(C)Oc1ccc(NC(=O)c2cccc(S(=O)(=O)N3CC4CC5CC(C4)CC3C5)c2)cc1` [Example 4, 3-(4-Azatricyclo[4.3.1.1^3,8]undec-4-ylsulfonyl)-N-(4-isopropoxyphenyl)benzamide] to `CC(C)c1ccc(NC(=O)c2cccc(S(=O)(=O)N3CCCC(C(N)=O)C3)c2)cc1` (stereo not shown) [Example 34, 1-[(3-{[(4-Isopropylphenyl)amino]carbonyl]phenyl)sulfonyl}piperidine-3-carboxamide], the IC50 falls from 5100 nM to 53 nM (96-fold).

First: CC(C)Oc1ccc(NC(=O)c2cccc(S(=O)(=O)c3ccccn3)c2)nc1 [Example 122, N-(5-isopropoxypyridin-2-yl)-3-(pyridin-2-ylsulfonyl)benzamide]
Second: CC(C)Oc1cc(NC(=O)c2cccc(S(=O)(=O)N3CCCC3C)c2)[nH]n1 (stereo not shown) [Example 64, 3-Isopropoxy-5-({3-[(2-methylpyrrolidin-1-yl)sulfonyl]benzoyl}amino)-1H-pyrazole hydrochloride]
The IC50 of the first is 52-fold higher: 260 nM for the first, 5 nM for the second. The second is the more potent here.

Work on `N#Cc1nc[nH]c1NC(=O)c1cccc(S(=O)(=O)N2CCCCC2)c1` [Example 114, N-(4-cyano-1H-imidazol-5-yl)-3-(piperidin-1-ylsulfonyl)benzamide] yielded an IC50 of 2800 nM.
